# Data from patent publication US11168134B2, “Methods of treating androgen deprivation therapy resistant prostate cancer” (Fondazione per l'Istituto Oncologico di Ricerca (IOR), priority 2018, dated 2021).
# B1: recombinant IL23: recombinant IL23 (100 ng/ml; R&D System) (protein, UniProt Q9NPF7 20-189; P29460 23-328, looked up)
# Interleukin-23 subunit alpha: RAVPGGSSPAWTQCQQLSQKLCTLAWSAHPLVGHMDLREEGDEETTNDVPHIQCGDGCDPQGLRDNSQFCLQRIHQGLIFYEKLLGSDIFTGEPSLLPDSPVGQLHASLLGLSQLLQPEGHHWETQQIPSLSPSQPWQRLLLRFKILRSLQAFVAVAARVFAHGAATLSP
# Interleukin-12 subunit beta: IWELKKDVYVVELDWYPDAPGEMVVLTCDTPEEDGITWTLDQSSEVLGSGKTLTIQVKEFGDAGQYTCHKGGEVLSHSLLLLHKKEDGIWSTDILKDQKEPKNKTFLRCEAKNYSGRFTCWWLTTISTDLTFSVKSSRGSSDPQGVTCGAATLSAERVRGDNKEYEYSVECQEDSACPAAEESLPIEVMVDAVHKLKYENYTSSFFIRDIIKPDPPKNLQLKPLKNSRQVEVSWEYPDTWSTPHSYFSLTFCVQVQGKSKREKKDRVFTDKTSATVICRKNASISVRAQDRYYSSSWSEWASVPCS
# Legend:
# [1] = tested on: castration resistant prostate tumors of Pten^pc−/− mice; assay: Preclinical trial in castration-resistant Pten^pc−/− mice (αIL23, ENZA, ENZA+αIL23); format: in vivo, mouse; conditions: ENZA 30 mg/kg/day oral alone
# Description: All mice were maintained under specific pathogen-free conditions in the IRB facility and experiments were performed according to state guidelines and approved by the local ethics committee. Male C57BL/6 or FVB mice 6-8 weeks of age were purchased from Jackson Laboratories (Envigo), and acclimated for at least a week before use. C57BL/6 IL-23p19KO (IL23ko) mice were kindly provided by Prof. Federica Sallusto (IRB, Bellinzona). Pten^pc−/− mice were generated and genotyped as previously described. Female Pten^loxP/loxP mice were crossed with male PB-Cre4 transgenic mice and genotyped for Cre using following primers: primer 1 (5′-[…]-3′) and primer 2 (5′-[…]-3′) for PTEN^loxP/loxP; primer 1 (5′ […] 3′) and primer 2 (5′CAGCCACCAGCTTGCATGA 3′) for Probasin-CRE. Surgical castration was performed under anesthesia with isoflurane. Mice were monitored postoperatively for recovery from anesthesia and checked daily for 2 days postoperatively. Surgical skin clips were removed on postoperative day 5. […] Tumor growth was monitored daily by measuring the tumor size with caliper. […]
# For immunohistochemistry (IHC), tissues were fixed in 10% formalin (ThermoScientific, 5701) and embedded in paraffin in accordance with standard procedures. […] All the quantifications have been done using the public online software ImmunoRatio (153.1.200.58:8080/iimunoratio/). […]
# [2] = tested on: prostate tumors of CTX Pten^pc−/− mice; assay: CXCR2 antagonist treatment of surgically castrated Pten^pc−/− mice; format: in vivo, mouse
# Description: All mice were maintained under specific pathogen-free conditions in the IRB facility and experiments were performed according to state guidelines and approved by the local ethics committee. Male C57BL/6 or FVB mice 6-8 weeks of age were purchased from Jackson Laboratories (Envigo), and acclimated for at least a week before use. C57BL/6 IL-23p19KO (IL23ko) mice were kindly provided by Prof. Federica Sallusto (IRB, Bellinzona). Pten^pc−/− mice were generated and genotyped as previously described. […] Mice were monitored postoperatively for recovery from anesthesia and checked daily for 2 days postoperatively. […] Tumor growth was monitored daily by measuring the tumor size with caliper. […]
# Tumors were disaggregated and digested in collagenase D and DNAse for 30 minutes at 37° C. to obtain single-cell suspension. […] Data were analyzed using FlowJo software (TreeStar, Ashland, Oreg.).
# (§1) RNA isolation (TRIzol, Qiagen) and retro-transcription with SuperScriptIII (Invitrogen, 11752-250) were performed according to the manufacturer's instructions. Quantitative PCR (qPCR) reactions (Bio-Rad) were performed using KAPA SYBR FAST qPCR green (KK4605; Applied Biosystems) and the specific primers reported below. […]
# TRAMP-C1 cells [3] = assay: CXCR2 antagonist treatment of castrated TRAMP-C1 allograft mice; format: in vivo, mouse
# Description: (§2) All mice were maintained under specific pathogen-free conditions in the IRB facility and experiments were performed according to state guidelines and approved by the local ethics committee. Male C57BL/6 or FVB mice 6-8 weeks of age were purchased from Jackson Laboratories (Envigo), and acclimated for at least a week before use. C57BL/6 IL-23p19KO (IL23ko) mice were kindly provided by Prof. Federica Sallusto (IRB, Bellinzona). Pten^pc−/− mice were generated and genotyped as previously described. Female Pten^loxP/loxP mice were crossed with male PB-Cre4 transgenic mice and genotyped for Cre using following primers: primer 1 (5′-[…]-3′) and primer 2 (5′-[…]-3′) for PTEN^loxP/loxP; primer 1 (5′ […] 3′) and primer 2 (5′CAGCCACCAGCTTGCATGA 3′) for Probasin-CRE. Surgical castration was performed under anesthesia with isoflurane. Mice were monitored postoperatively for recovery from anesthesia and checked daily for 2 days postoperatively. Surgical skin clips were removed on postoperative day 5. Mice undergoing treatment were administered control vehicle or therapeutic doses of the appropriate agents. Any mouse suffering distress or greater than 15% weight loss during treatment was euthanized by CO2 asphyxiation. At the completion of study, mice were euthanized by CO2 asphyxiation and tissue was collected for histology, mRNA analysis, protein analysis, and single cell suspensions for flow cytometry. For allograft experiments, 2.5×10^6 TRAMP-C1 cells, 2.5×10^6 TRAMP-C1 IL23RKO, or 2×10^6 MyC-CaP cells were injected subcutaneously into the flank of male respectively C57BL/6 or FVB mice. When tumors were approximately 100 mm^3, mice were randomized to the treatment groups. Tumor growth was monitored daily by measuring the tumor size with caliper. The tumor volume was estimated by calculating R1*R2*R3*4/3π, where R1 and R2 are the longitudinal and lateral radii, and R3 is the thickness of tumor protruding from the surface of normal skin. Animals were sacrificed when the tumor reached approximately 600 mm^3.
# (§3) αCXCR2 (AZD5069; AstraZeneca) was administered with daily intraperitoneal injections at a final concentration of 100 mg/kg on a Monday through Friday schedule. Control animals received vehicle. Enzalutamide (APExBio) was administered daily by oral gavage with a dose of 30 mg/kg/day on a Monday through Friday schedule. Rat anti-IL23 antibody (100 ng per mouse; G23-8; IgG1, kappa; eBioscience) or rat IgG1 isotype control (eBioscience) were administered weekly via intraperitoneal injection.
# (§4) Tumors were disaggregated and digested in collagenase D and DNAse for 30 minutes at 37° C. to obtain single-cell suspension. For intracellular cytokine detection cells where stimulated for 5 hours with PMA/ionomycin. After neutralization of unspecific binding with αCD16/CD32 (clone 93), single-cell suspensions were stained with specific mAb (primary antibodies directly conjugated) to assess the phenotype. […] Data were analyzed using FlowJo software (TreeStar, Ashland, Oreg.).
# as §1
# MyC-CaP cells = assay: CXCR2 antagonist treatment of castrated MyC-CaP allograft mice; format: in vivo, mouse
# Description: as §2, §3, §4, §1
# TRAMP-C1 cells [4] = assay: In vitro culture of prostate cancer cells under full androgen deprivation (F.A.D.); format: cell-based, mouse
# Description: Prostate cancer cell lines were starved in Charcoal Stripped FBS (CS-FBS) medium for 72 h and then cultured with RPMI 1640 containing 10% heat-inactivated FBS (normal medium) or kept in full androgen deprivation medium (RPMI 1640 containing 10% heat-inactivated Charcoal Stripped-FBS plus Enzalutamide 10 μM; F.A.D.). Then, the cells were stimulated with or without condition media obtained from activated BM-derived MDSCs, or recombinant IL23 (100 ng/ml; R&D System), with or without αRORγ (5 μM; SR2211; Calbiochem®). Then, the cells were analyzed for Crystal Violet assay or stained with Annexin V/7AAD or collected for RNA extraction.
# RNA isolation (TRIzol, Qiagen) and retro-transcription with SuperScriptIII (Invitrogen, 11752-250) were performed according to the manufacturer's instructions. Quantitative PCR (qPCR) reactions (Bio-Rad) were performed using KAPA SYBR FAST qPCR green (KK4605; Applied Biosystems) and the specific primers reported below. Primer sequences were obtained from PrimerBank (http://pga.mgh.harvard.edu/primerbank/index.html) or BIORAD. Each expression value was normalized by HPRT or GADPH level as reference.
molecule,measurement,setting,value
"CNC(=O)c1ccc(N2C(=S)N(c3ccc(C#N)c(C(F)(F)F)c3)C(=O)C2(C)C)cc1F [ENZA, Enzalutamide]","treatment effect (glands, tumor volume, proliferation)",[1],ineffective
C[C@@H](Oc1cc(NS(=O)(=O)N2CCC2)nc(SCc2cccc(F)c2F)n1)[C@@H](O)CO [AZD5069],tumor infiltration of PMN-MDSCs,"[2]; AZD5069 100 mg/kg i.p. daily Monday-Friday, flow cytometry (FIG. 6f)",strongly reduced the tumor infiltration of PMN-MDSCs
same,progression to CRPC,"[2]; judged by tumor volume and levels of AR target genes, untreated mice developed CRPCs four months after castration",did not progress to CRPCs
same,tumor infiltration of PMN-MDSCs,"TRAMP-C1 cells [3]; castrated C57BL/6 mice with s.c. TRAMP-C1 tumors, AZD5069 100 mg/kg i.p., flow cytometry (FIG. 7a)",strongly reduced the tumor infiltration of PMN-MDSCs
same,emergence of CRPC,TRAMP-C1 cells [3]; castrated TRAMP-C1 allograft mice,delayed the emergence of CRPC
same,tumor size,TRAMP-C1 cells [3]; castrated TRAMP-C1 allograft mice (FIG. 7c),decreased tumor size
same,survival,"TRAMP-C1 cells [3]; castrated TRAMP-C1 allograft mice, Kaplan-Meier (FIG. 7d)",longer survival
same,level of AR target genes in tumors,"TRAMP-C1 cells [3]; castrated TRAMP-C1 allograft mice, qRT-PCR (FIG. 7b)",decreased
same,tumor infiltration of PMN-MDSCs,"MyC-CaP cells; castrated FVB mice with s.c. MyC-CaP tumors, AZD5069 100 mg/kg i.p., flow cytometry (FIG. 7e)",strongly reduced the tumor infiltration of PMN-MDSCs
same,emergence of CRPC,MyC-CaP cells; castrated MyC-CaP allograft mice,delayed the emergence of CRPC
same,tumor size,MyC-CaP cells; castrated MyC-CaP allograft mice (FIG. 7g),decreased tumor size
same,survival,"MyC-CaP cells; castrated MyC-CaP allograft mice, Kaplan-Meier (FIG. 7h)",longer survival
same,level of AR target genes in tumors,"MyC-CaP cells; castrated MyC-CaP allograft mice, qRT-PCR (FIG. 7f)",decreased
same,"AR activity (AR target genes, qRT-PCR)","TRAMP-C1 cells [4]; TRAMP-C1 cells in F.A.D., 24 h of treatment with CXCR2 antagonist (FIG. 6i)",did not directly affect
same,cell proliferation,"TRAMP-C1 cells [4]; TRAMP-C1 cells in F.A.D., 72 h of treatment with CXCR2 antagonist (FIG. 6h)",did not directly affect
B1,cell survival (AnnexinV/7AAD),"TRAMP-C1 cells [4]; TRAMP-C1 cells kept in F.A.D., recombinant IL23 100 ng/ml (FIG. 2f-g)",promoted
same,transcription of androgen receptor target genes,"TRAMP-C1 cells [4]; TRAMP-C1 cells kept in F.A.D., recombinant IL23 100 ng/ml, 24 h, qRT-PCR (FIG. 2h)",increased transcription of androgen receptor target genes
same,cell proliferation,"TRAMP-C1 cells [4]; TRAMP-C1 cells kept in F.A.D., recombinant IL23 100 ng/ml, 72 h (FIG. 2e)",promoted proliferation
